pIC50, pKi: −log10 of the molar value. Where two headings read alike, the source gives them in different places.
Columns and labels:
[1] = molecular target: T1, Cyclin Dependent Kinase 1/Cyclin A2 (CDK1-cycA2) (Homo sapiens, UniProt P06493); experiment: CDK1-cycA2 TR-FRET (Lance) enzyme assay; assay type: biochemical; conditions: for pKi: Table O, enzymatic assay; for FS CDK1/CDK2: fold selectivity, enzymatic Ki ratio
T1 construct: purchased ProQinase 0134-0054-1
Method in brief: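 Human CDK1/cyclin A2 pre-incubated 30 min with compound dose responses in 50 mM HEPES pH 7.5, 10 mM MgCl2, 2 mM TCEP, 0.05% BGG, 0.01% Brij 35. Reaction quenched with EDTA (15 mM final); TR-FRET readout using Eu-anti-phospho-4E-BP1, acceptor/donor ratio. Inhibition constants from Morrison equation.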

[2] = molecular target: T2, Cyclin Dependent Kinase 2/Cyclin E1 (CDK2-cycE1) (Homo sapiens, UniProt P24941); experiment: CDK2-cycE1 TR-FRET (LANCE) enzyme assay; assay type: biochemical; conditions: for pKi: enzymatic assay, read-out: CDK2 Ki; for FS CDK1/CDK2 / FS CDK4/CDK2: fold selectivity; for FS CDK1/CDK2: enzymatic CDK1 Ki over CDK2 Ki; for FS CDK4/CDK2: enzymatic CDK4 Ki over CDK2 Ki
T2 construct: purchased ProQinase 0050-0055-1
Method in brief: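 Compound dose responses pre-incubated 30 min with CDK2-cycE1 in 50 mM HEPES pH 7.5, 10 mM MgCl2, 2 mM TCEP, 0.05% BGG, 0.01% Brij 35. Reaction quenched with EDTA (15 mM final), phospho-MBP detected by Eu-anti-phospho-MBP TR-FRET (acceptor/donor ratio). Inhibition constants from Morrison equation.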

[3] = molecular target: T3, Cyclin Dependent Kinase 4/Cyclin D3 (CDK4-cycD3) (Homo sapiens, UniProt P11802); experiment: CDK4-cycD3 TR-FRET (LANCE) enzyme assay; assay type: biochemical; conditions: for pKi: Table O, enzymatic assay; for FS CDK4/CDK2: fold selectivity, enzymatic Ki ratio
T3 construct: purchased Carna Biosciences 04-105
Method in brief: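 Compound dose responses pre-incubated 30 min with enzyme mix in 50 mM HEPES pH 7.5, 10 mM MgCl2, 2 mM TCEP, 0.05% BGG, 0.01% Brij 35. Reaction quenched with EDTA (15 mM final); Eu-anti-phospho-4E-BP1 TR-FRET detection, acceptor/donor ratio. Ki derived by Morrison equation.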

[4] = tested on: OVISE (JCRB1043, CCNE1-amplified); experiment: OVISE EdU incorporation cell proliferation assay (CDK2-dependent); assay type: cell-based; conditions: for pIC50: read-out: CDK2 OVISE IC50; for FS SKOV-3/OVISE / FS p-H3/OVISE: fold selectivity; for FS SKOV-3/OVISE: cellular SKOV-3 IC50 over OVISE IC50; for FS p-H3/OVISE: cellular p-H3 IC50 over OVISE IC50
Method in brief: (§1)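 Cells in RPMI/10% FBS dosed with compound (0.5% DMSO final) for 16 h at 37 °C, 5% CO2, then EdU 0.5 μM final for 8 h before fixation and imaging. IC50 from 4-parameter logistic fit of EdU-positive cell fraction versus dose.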

SKOV-3 (ATCC HTB-77) = experiment: SKOV-3 EdU incorporation cell proliferation assay (CDK4/6-dependent); assay type: cell-based; conditions: for pIC50: Homo sapiens; for FS SKOV-3/OVISE: fold selectivity, cellular IC50 ratio
Method in brief: as §1

HCT116 cells = experiment: p-H3 HCT-116 mitotic release cell proliferation assay (cellular CDK1); assay type: cell-based; conditions: Homo sapiens
Experimental: Inhibition of cellular CDK1 determined by release of cells from nocodazole-induced mitotic arrest, as measured by decrease in phospho-Histone H3. Histone H3 (Ser 10) level is detected in cell lysates by producing a Fluorescence Resonance Energy Transfer (FRET) signal between two antibodies, Phospho-Histone H3 Cryptate (acting as the donor) and Phospho-Histone H3 d2 (acting as the acceptor).
Plates are allowed to rest overnight at 37° C./5% CO2. The following morning, nocodazole is diluted in complete medium, and 5 μL is added to each test well and positive control well for a final concentration of 500 nM. Plates are then incubated for 16 hours at 37° C./5% CO2. […] 10 μL of diluted compound is then transferred to the cell plate (final DMSO concentration 0.1%). Cell plates are then incubated for 4 hours in 37° C. 5% CO2. A cell lysis buffer is prepared on ice using reagents from the Phospho-Histone H3 (Ser10) cellular kit (Cisbio-64HH3PEG). Supernatant is discarded from the cell plate and 80 μL of the supplemented cell lysis buffer (1:99 dilution of the Blocking Reagent and the 1× cell lysis buffer provided in the kit) is added to each of the experimental wells. The cell lysis reaction is allowed to proceed at room temperature while shaking vigorously for 30 minutes. The 384-well HTRF (Homogeneous Time Resolved Fluorescence) plate is prepared by adding 2 μL of each diluted antibody (Phospho-Histone H3 Cryptate antibody and Phospho-Histone H3 d2 antibody diluted 19:1 in a detection buffer) and 12 μL of the supplemented cell lysis buffer to each well in the HTRF plate. 4 μL of the cell lysate is added to the prepared HTRF plate which is then sealed and the reaction is allowed to proceed for a minimum of 2 hours at room temperature.

[5] = SK-OV-3, Table O, cellular assay, read-out: CDK4/6 SKOV-3 IC50
[6] = HCT-116, Table O, cellular assay, read-out: CDK1 p-H3 IC50

T3 sequence (P11802 whole entry): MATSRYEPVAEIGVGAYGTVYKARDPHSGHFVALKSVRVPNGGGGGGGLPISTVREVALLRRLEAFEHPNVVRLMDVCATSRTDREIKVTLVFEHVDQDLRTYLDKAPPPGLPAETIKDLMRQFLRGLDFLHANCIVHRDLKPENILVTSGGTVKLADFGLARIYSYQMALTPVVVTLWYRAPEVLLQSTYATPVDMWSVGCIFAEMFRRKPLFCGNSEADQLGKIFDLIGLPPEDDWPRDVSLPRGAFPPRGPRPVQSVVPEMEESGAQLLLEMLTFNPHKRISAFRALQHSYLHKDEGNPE
T3 sequence (P30281 whole entry partner): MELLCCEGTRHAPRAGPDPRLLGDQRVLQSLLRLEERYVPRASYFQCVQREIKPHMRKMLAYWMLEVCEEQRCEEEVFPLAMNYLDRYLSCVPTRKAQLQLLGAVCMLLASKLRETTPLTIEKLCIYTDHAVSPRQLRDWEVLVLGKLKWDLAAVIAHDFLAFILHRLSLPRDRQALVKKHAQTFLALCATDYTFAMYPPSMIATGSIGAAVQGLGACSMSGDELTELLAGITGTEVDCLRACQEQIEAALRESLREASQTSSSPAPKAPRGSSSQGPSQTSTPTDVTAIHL
T1 sequence (P06493 whole entry): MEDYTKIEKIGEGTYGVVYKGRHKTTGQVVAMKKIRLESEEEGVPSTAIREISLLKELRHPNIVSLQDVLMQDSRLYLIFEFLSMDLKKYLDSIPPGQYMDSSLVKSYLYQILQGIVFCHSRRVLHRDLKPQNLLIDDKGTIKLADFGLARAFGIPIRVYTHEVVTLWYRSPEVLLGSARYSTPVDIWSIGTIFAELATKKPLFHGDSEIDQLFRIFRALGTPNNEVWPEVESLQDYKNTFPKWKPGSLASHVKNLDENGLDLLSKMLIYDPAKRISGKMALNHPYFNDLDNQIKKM
T1 sequence (P20248 whole entry partner): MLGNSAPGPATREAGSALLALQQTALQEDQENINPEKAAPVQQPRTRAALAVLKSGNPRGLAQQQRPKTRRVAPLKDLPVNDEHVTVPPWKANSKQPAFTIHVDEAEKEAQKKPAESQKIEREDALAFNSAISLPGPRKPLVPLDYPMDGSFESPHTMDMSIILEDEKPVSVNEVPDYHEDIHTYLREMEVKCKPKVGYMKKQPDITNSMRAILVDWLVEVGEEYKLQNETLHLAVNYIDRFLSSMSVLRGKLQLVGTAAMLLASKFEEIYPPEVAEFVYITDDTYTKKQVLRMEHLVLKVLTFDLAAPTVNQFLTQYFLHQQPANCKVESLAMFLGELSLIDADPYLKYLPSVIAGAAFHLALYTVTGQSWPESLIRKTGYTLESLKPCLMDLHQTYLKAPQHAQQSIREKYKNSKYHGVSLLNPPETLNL

Row | SMILES | pKi [1] | pKi ([2]; Table O) | FS CDK1/CDK2 ([2]; Table O) | FS CDK4/CDK2 ([2]; Table O) | pKi [3] | pIC50 (SKOV-3 (ATCC HTB-77); [5]) | pIC50 (HCT116 cells; [6]) | pIC50 ([4]; Table O, cellular assay) | FS SKOV-3/OVISE ([4]; Table O) | FS p-H3/OVISE ([4]; Table O) | other results
1 | CC(C)(C)NC(=O)O[C@@H]1CC[C@H](c2cc(Nc3cccnn3)n[nH]2)C1 [Example 4I, (1R,3S)-3-(3-(pyridazin-3-ylamino)-1H-pyrazol-5-yl)cyclopentyl tert-butylcarbamate] | 7.35 | 8.60 | 18 | 13 | 7.48 | 5.31 | 6.82 | 6.62 | 20 | 0.63 | FS CDK1/CDK2 ([1]; Table R): 18; FS CDK1/CDK2 ([1]; Table S): 18; pKi ([2]; Table R): 8.60; CDK2 Ki fold change in potency versus Comparator D ([2]; Table R, in brackets after CDK2 Ki): 1.1 fold; pKi ([2]; Table S): 8.60; CDK2 Ki fold change in potency versus Comparator E ([2]; Table S, in brackets after CDK2 Ki): 0.2 fold; FS CDK4/CDK2 increased over Comparator D, (+) sign ([3]; Table R): (+); FS CDK4/CDK2 ([3]; Table R): 13; FS CDK4/CDK2 ([3]; Table S): 13; CDK2 OVISE IC50 fold change in potency versus Comparator D ([4]; Table R, in brackets after OVISE IC50): 16 fold; CDK2 OVISE IC50 fold change in potency versus Comparator E ([4]; Table S, in brackets after OVISE IC50): 0.7 fold; selectivity for CDK2 over CDK4 compared with Comparator E (SKOV-3 (ATCC HTB-77); SKOV-3/OVISE fold-selectivity cellular assay data): increase in selectivity for CDK2 over CDK4; FS SKOV-3/OVISE increased over Comparator D, (+) sign (SKOV-3 (ATCC HTB-77); Table R): (+); FS SKOV-3/OVISE (SKOV-3 (ATCC HTB-77); Table R): 20; FS SKOV-3/OVISE increased over Comparator E, (+) sign (SKOV-3 (ATCC HTB-77); Table S): (+); FS SKOV-3/OVISE (SKOV-3 (ATCC HTB-77); Table S): 20
2 | CN(C)Cc1ccc(Nc2cc([C@H]3CC[C@@H](OC(=O)NC45CC(C4)C5)C3)[nH]n2)cn1 [Example 9J, (1R,3S)-3-(3-((6-((dimethylamino)methyl)pyridin-3-yl)amino)-1H-pyrazol-5-yl)cyclopentyl bicyclo[1.1.1]pentan-1-ylcarbamate] | 7.19 | 8.72 | 34 | 8.9 | 7.77 | 6.55 | 7.41 | 7.05 | 3.1 | 0.44 | –
3 | CC1(NC(=O)O[C@@H]2CC[C@H](c3cc(Nc4ccc(C#N)cn4)n[nH]3)C2)COC1 [Example 10E, (1R,3S)-3-(3-((5-cyanopyridin-2-yl)amino)-1H-pyrazol-5-yl)cyclopentyl (3-methyloxetan-3-yl)carbamate] | 7.60 | 9.11 | 32 | 82 | 7.19 | – | – | – | 20 | 1.1 | pIC50 [4]: 6.96; pIC50 (SKOV-3 (ATCC HTB-77); SK-OV-3, read-out: CDK4/6 SKOV-3 IC50): 5.66; pIC50 (HCT116 cells; HCT-116, read-out: CDK1 p-H3 IC50): 6.92
4 | CN1CCN(c2ccc(Nc3cc([C@H]4CC[C@@H](OC(=O)NC56CC(C5)C6)C4)[nH]n3)cn2)CC1 [Example 9H, (1R,3S)-3-(3-((6-(4-methylpiperazin-1-yl)pyridin-3-yl)amino)-1H-pyrazol-5-yl)cyclopentyl bicyclo[1.1.1]pentan-1-ylcarbamate] | 7.52 | 8.33 | 6.4 | 2 | 8.02 | 6.82 | 7.41 | 6.82 | 1 | 0.26 | –
5 | O=C(NC12CC(C1)C2)O[C@@H]1CC[C@H](c2cc(Nc3cccnn3)n[nH]2)C1 [Example 3, (1R,3S)-3-(3-(pyridazin-3-ylamino)-1H-pyrazol-5-yl)cyclopentyl bicyclo[1.1.1]pentan-1-ylcarbamate] | 7.33 | 8.74 | 26 | 61 | 6.96 | 5.64 | 7.14 | 6.82 | 15 | 0.49 | –

More lines, in order of rising pKi [1], values ahead:

Row | pKi [1] | pKi ([2]; Table O) | FS CDK1/CDK2 ([2]; Table O) | FS CDK4/CDK2 ([2]; Table O) | pKi [3] | pIC50 (SKOV-3 (ATCC HTB-77); [5]) | pIC50 (HCT116 cells; [6]) | SMILES | pIC50 ([4]; Table O, cellular assay) | FS SKOV-3/OVISE ([4]; Table O) | FS p-H3/OVISE ([4]; Table O) | other results
6 | 6.55 | 8.00 | 28 | 72 | 6.14 | 4.89 | 5.85 | CN1CCC(NC(=O)O[C@@H]2CC[C@H](c3cc(Nc4cccnn4)n[nH]3)C2)CC1 [Example 3E, (1R,3S)-3-(3-(pyridazin-3-ylamino)-1H-pyrazol-5-yl)cyclopentyl (1-methylpiperidin-4-yl)carbamate] | 6.38 | 31 | 3.3 | –
7 | 7.08 | 9.20 | 132 | 444 | 6.55 | 4.92 | 6.64 | Cc1nnccc1Nc1cc([C@H]2CC[C@@H](OC(=O)NC(C)(C)C)C2)[nH]n1 [Example 11A, (1R,3S)-3-(3-((3-methylpyridazin-4-yl)amino)-1H-pyrazol-5-yl)cyclopentyl tert-butylcarbamate] | 6.92 | 100 | 1.9 | –
8 | 8.05 | 9.42 | 23 | 97 | 7.43 | 6.44 | 8.16 | O=C(NC12CC(C1)C2)O[C@@H]1CC[C@H](c2cc(Nc3ccc(CO)nc3)n[nH]2)C1 [Example 9I, (1R,3S)-3-(3-((6-(hydroxymethyl)pyridin-3-yl)amino)-1H-pyrazol-5-yl)cyclopentyl bicyclo[1.1.1]pentan-1-ylcarbamate] | 7.52 | 12 | 0.23 | –

Source: patent US20240425478A1, “CYCLOPENTYLPYRAZOLE CDK2 INHIBITORS” (Genentech, Inc., priority 2021, published 2024)
